Source: US20250381198A1 (Melt Pharmaceuticals, Inc., priority 2024, published 2025)

Key:
[1] = tested on: subjects undergoing cataract extraction with lens replacement (CELR); experiment: Phase 2: subjects wanting study drug again for a second surgery (11-point Likert scale); type: in vivo, human; conditions: for Want Study Drug Again, Mean / Want Study Drug Again, Median: 11-point Likert scale of 0 (not likely at all) to 10 (extremely likely), full analysis set
From the text: Post-operation, subjects were asked whether they would want the study drug again for a second surgery using an 11-point Likert scale of 0 (not likely at all) to 10 (extremely likely).

[2] = tested on: subjects undergoing cataract extraction with lens replacement (CELR); experiment: Phase 2: subjects requiring rescue sedative medication; type: in vivo, human; conditions: Visit 2 (Day 1); full analysis set
Protocol: (§1) The number of subjects achieving analgesia response (observed) in the full analysis set was determined. Success in analgesia response was defined as NPRS<4 at the available at the available four intraoperative timepoints and a failure otherwise (e.g., any interoperative pain rescue was assumed to be a failure. Results are provided in TABLE 25. The number of subjects completing the surgery is provided in TABLE 26, and the number of subjects completing the surgery without interruption is provided in TABLE 27. For this measure, subjects completing the surgery without interruption (other than rescue medication) due to pain or anxiety were considered successes. The number of subjects requiring rescue sedative medication and those requiring analgesic medication are provided in TABLES 28 and 29, respectively. For all TABLES 25-29, p-Values between pairs of treatments were calculated and are provided.

[3] = tested on: subjects undergoing cataract extraction with lens replacement (CELR); experiment: Phase 2: subjects requiring rescue analgesic medication; type: in vivo, human; conditions: Visit 2 (Day 1); full analysis set
Protocol: as §1

[4] = tested on: subjects undergoing cataract extraction with lens replacement (CELR); experiment: Phase 2: subjects completing the surgery (and without interruption); type: in vivo, human; conditions: Visit 2 (Day 1); full analysis set
Protocol: as §1

[5] = tested on: subjects undergoing cataract extraction with lens replacement (CELR); experiment: Phase 2: mean intraoperative analgesia by the numeric pain rating scale; conditions: for Intraoperative Numeric Pain Rating Scale, Mean / Intraoperative Numeric Pain Rating Scale, Median: full analysis set
Protocol: Mean intraoperative analgesia by the numeric pain rating scale (Min=0; Max=9) was assayed for each subject in the full analysis set at intraoperative timepoints: insertion of the speculum; corneal incision; insertion of phacoemulsion probe; insertion of the synthetic replacement lens. An average of the available timepoints was also calculated.

[6] = 11-point Likert scale, unpaired t-test
[7] = Average of Available Timepoints, adjusted for site (carry forward)
[8] = Average of Available Timepoints, adjusted for site (carry forward), repeated measures model with covariates for study center
[9] = Average of Available Timepoints, carry forward
[10] = Average of Available Timepoints, carry forward, repeated measures model
[11] = Average of Available Timepoints, observed
[12] = Average of Available Timepoints, observed, repeated measures model
[13] = Corneal incision, adjusted for site (carry forward)
[14] = Corneal incision, carry forward
[15] = Insertion of the phacoemulsion probe, adjusted for site (carry forward)
[16] = Insertion of the phacoemulsion probe, carry forward
[17] = Insertion of the phacoemulsion probe, observed
[18] = Insertion of the speculum, adjusted for site (carry forward)
[19] = Insertion of the speculum, carry forward
[20] = Insertion of the speculum, observed
[21] = Insertion of the synthetic replacement lens, adjusted for site (carry forward)
[22] = Insertion of the synthetic replacement lens, carry forward
[23] = Insertion of the synthetic replacement lens, observed
[24] = adjusted for site (carry forward), repeated measures model with covariates for study center
[25] = carry forward, repeated measures model
[26] = observed, repeated measures model

For `Cc1ncc2n1-c1ccc(Cl)cc1C(c1ccccc1F)=NC2` [Midazolam 3 mg], the “Want Study Drug Again, Mean” value [1] was 8.4, the “Want Study Drug Again, Median” value [1] was 10.0 and the “Want Study Drug Again, Mean Difference Versus Ketamine” value [1, 6] was 0.80. For the same molecule, the “Want Study Drug Again, Mean Difference Versus Placebo” value [1, 6] was 0.75, the “Subjects Requiring Rescue Sedative Medication, Intraoperatively, %” value [2] was “(8.6) %” and the “Subjects Requiring Rescue Sedative Medication, No, %” value [2] was “(65.4) %”. For the same molecule, the “Subjects Requiring Rescue Sedative Medication, Pre-operatively, %” value [2] was “(25.9) %”, the “Subjects Requiring Rescue Sedative Medication, Yes, %” value [2] was “(34.6) %” and the “Subjects Requiring Rescue Analgesic Medication, No, %” value [3] was “(56.8) %”. For the same molecule, the “Subjects Requiring Rescue Analgesic Medication, Yes, %” value [3] was “(43.2) %”, the “Subjects Completing the Surgery without Interruption, No, %” value [4] was “(0) %” and the “Subjects Completing the Surgery without Interruption, Yes, %” value [4] was “(100.0) %”. For the same molecule, the “Intraoperative Numeric Pain Rating Scale, Mean” value [5, 7] was 2.37, the “Intraoperative Numeric Pain Rating Scale, Median” value [5, 7] was 2.00 and the “Intraoperative Numeric Pain Rating Scale, LS Mean” value [5, 8] was 2.12. For the same molecule, the “Intraoperative Numeric Pain Rating Scale, Mean” value [5, 9] was 2.37, the “Intraoperative Numeric Pain Rating Scale, Median” value [5, 9] was 2.00 and the “Intraoperative Numeric Pain Rating Scale, LS Mean” value [5, 10] was 2.37. For the same molecule, the “Intraoperative Numeric Pain Rating Scale, Mean” value [5, 11] was 2.18, the “Intraoperative Numeric Pain Rating Scale, Median” value [5, 11] was 2.00 and the “Intraoperative Numeric Pain Rating Scale, LS Mean” value [5, 12] was 2.46. The “Intraoperative Numeric Pain Rating Scale, Mean” value [5, 13] was 1.8, the “Intraoperative Numeric Pain Rating Scale, Median” value [5, 13] was 1.0 and the “Intraoperative Numeric Pain Rating Scale, Mean” value [5, 14] was 1.8. For the same molecule, the “Intraoperative Numeric Pain Rating Scale, Median” value [5, 14] was 1.0, the “Intraoperative Numeric Pain Rating Scale, Mean” value ([5]; Corneal incision, observed) was 1.8 and the “Intraoperative Numeric Pain Rating Scale, Median” value ([5]; Corneal incision, observed) was 1.0. The “Intraoperative Numeric Pain Rating Scale, Mean” value [5, 15] was 2.9, the “Intraoperative Numeric Pain Rating Scale, Median” value [5, 15] was 3.0 and the “Intraoperative Numeric Pain Rating Scale, Mean” value [5, 16] was 2.9. For the same molecule, the “Intraoperative Numeric Pain Rating Scale, Median” value [5, 16] was 3.0, the “Intraoperative Numeric Pain Rating Scale, Mean” value [5, 17] was 2.5 and the “Intraoperative Numeric Pain Rating Scale, Median” value [5, 17] was 2.0. The “Intraoperative Numeric Pain Rating Scale, Mean” value [5, 18] was 1.1, the “Intraoperative Numeric Pain Rating Scale, Median” value [5, 18] was 0.0 and the “Intraoperative Numeric Pain Rating Scale, Mean” value [5, 19] was 1.1. For the same molecule, the “Intraoperative Numeric Pain Rating Scale, Median” value [5, 19] was 0.0, the “Intraoperative Numeric Pain Rating Scale, Mean” value [5, 20] was 1.1 and the “Intraoperative Numeric Pain Rating Scale, Median” value [5, 20] was 0.0. For the same molecule, the “Intraoperative Numeric Pain Rating Scale, Mean” value [5, 21] was 3.6, the “Intraoperative Numeric Pain Rating Scale, Median” value [5, 21] was 4.0 and the “Intraoperative Numeric Pain Rating Scale, Mean” value [5, 22] was 3.6. The “Intraoperative Numeric Pain Rating Scale, Median” value [5, 22] was 4.0, the “Intraoperative Numeric Pain Rating Scale, Mean” value [5, 23] was 2.9 and the “Intraoperative Numeric Pain Rating Scale, Median” value [5, 23] was 3.0. For the same molecule, the “Numeric Pain Rating Scale, LS Mean Difference Versus Ketamine” value [5, 24] was 0.22, the “Numeric Pain Rating Scale, LS Mean Difference Versus Placebo” value [5, 24] was −0.08 and the “Numeric Pain Rating Scale, LS Mean Difference Versus Ketamine” value [5, 25] was 0.20. For the same molecule, the “Numeric Pain Rating Scale, LS Mean Difference Versus Placebo” value [5, 25] was −0.12, the “Numeric Pain Rating Scale, LS Mean Difference Versus Ketamine” value [5, 26] was 0.24 and the “Numeric Pain Rating Scale, LS Mean Difference Versus Placebo” value [5, 26] was −0.01.

In the case of `CNC1(c2ccccc2Cl)CCCCC1=O` (centres unmarked) [Ketamine 50 mg], the “Want Study Drug Again, Mean” value [1] is reported as 7.6, the “Want Study Drug Again, Median” value [1] is reported as 10.0 and the “Want Study Drug Again, Mean Difference Versus Placebo” value [1, 6] is reported as −0.05. For the same molecule, the “Subjects Requiring Rescue Sedative Medication, Intraoperatively, %” value [2] was “(6.3) %”, the “Subjects Requiring Rescue Sedative Medication, No, %” value [2] was “(63.3) %” and the “Subjects Requiring Rescue Sedative Medication, Pre-operatively, %” value [2] was “(30.4) %”. The “Subjects Requiring Rescue Sedative Medication, Yes, %” value [2] was “(36.7) %”, the “Subjects Requiring Rescue Analgesic Medication, No, %” value [3] was “(59.5) %” and the “Subjects Requiring Rescue Analgesic Medication, Yes, %” value [3] was “(40.5) %”. The “Subjects Completing the Surgery without Interruption, No, %” value [4] was “(6.3) %”, the “Subjects Completing the Surgery without Interruption, Yes, %” value [4] was “(93.7) %” and the “Intraoperative Numeric Pain Rating Scale, Mean” value [5, 7] was 2.16. The “Intraoperative Numeric Pain Rating Scale, Median” value [5, 7] was 1.75, the “Intraoperative Numeric Pain Rating Scale, LS Mean” value [5, 8] was 1.89 and the “Intraoperative Numeric Pain Rating Scale, Mean” value [5, 9] was 2.16. The “Intraoperative Numeric Pain Rating Scale, Median” value [5, 9] was 1.75, the “Intraoperative Numeric Pain Rating Scale, LS Mean” value [5, 10] was 2.16 and the “Intraoperative Numeric Pain Rating Scale, Mean” value [5, 11] was 2.00. The “Intraoperative Numeric Pain Rating Scale, Median” value [5, 11] was 1.75, the “Intraoperative Numeric Pain Rating Scale, LS Mean” value [5, 12] was 2.22 and the “Intraoperative Numeric Pain Rating Scale, Mean” value [5, 13] was 1.8. For the same molecule, the “Intraoperative Numeric Pain Rating Scale, Median” value [5, 13] was 1.0, the “Intraoperative Numeric Pain Rating Scale, Mean” value [5, 14] was 1.8 and the “Intraoperative Numeric Pain Rating Scale, Median” value [5, 14] was 1.0. For the same molecule, the “Intraoperative Numeric Pain Rating Scale, Mean” value ([5]; Corneal incision, observed) was 1.7, the “Intraoperative Numeric Pain Rating Scale, Median” value ([5]; Corneal incision, observed) was 1.0 and the “Intraoperative Numeric Pain Rating Scale, Mean” value [5, 15] was 2.5. For the same molecule, the “Intraoperative Numeric Pain Rating Scale, Median” value [5, 15] was 2.0, the “Intraoperative Numeric Pain Rating Scale, Mean” value [5, 16] was 2.5 and the “Intraoperative Numeric Pain Rating Scale, Median” value [5, 16] was 2.0. For the same molecule, the “Intraoperative Numeric Pain Rating Scale, Mean” value [5, 17] was 2.1, the “Intraoperative Numeric Pain Rating Scale, Median” value [5, 17] was 2.0 and the “Intraoperative Numeric Pain Rating Scale, Mean” value [5, 18] was 1.3. For the same molecule, the “Intraoperative Numeric Pain Rating Scale, Median” value [5, 18] was 1.0, the “Intraoperative Numeric Pain Rating Scale, Mean” value [5, 19] was 1.1 and the “Intraoperative Numeric Pain Rating Scale, Median” value [5, 19] was 1.0. For the same molecule, the “Intraoperative Numeric Pain Rating Scale, Mean” value [5, 20] was 1.1, the “Intraoperative Numeric Pain Rating Scale, Median” value [5, 20] was 1.0 and the “Intraoperative Numeric Pain Rating Scale, Mean” value [5, 21] was 3.3. The “Intraoperative Numeric Pain Rating Scale, Median” value [5, 21] was 3.0, the “Intraoperative Numeric Pain Rating Scale, Mean” value [5, 22] was 3.3 and the “Intraoperative Numeric Pain Rating Scale, Median” value [5, 22] was 3.0. The “Intraoperative Numeric Pain Rating Scale, Mean” value [5, 23] was 2.5, the “Intraoperative Numeric Pain Rating Scale, Median” value [5, 23] was 2.0 and the “Numeric Pain Rating Scale, LS Mean Difference Versus Placebo” value [5, 24] was −0.30. For the same molecule, the “Numeric Pain Rating Scale, LS Mean Difference Versus Placebo” value [5, 25] was −0.32 and the “Numeric Pain Rating Scale, LS Mean Difference Versus Placebo” value [5, 26] was −0.26.
